# Experimental data from PubChem BioAssay (NCI).
#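 Tested at 5 concentrations; 48 h exposure; 96-well plates; endpoints linearly interpolated, else capped at highest concentration. The concentration for 50% growth inhibition is given as GI50. TGI denotes the concentration required for complete inhibition of growth.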
# How the values were obtained:
# Assay in all cases: growth of human tumour cells (NCI), 48 h
# SK-OV-3 ovarian = system: SK-OV-3 ovarian
# COLO 205 colon = system: COLO 205 colon
# SR leukemia = system: SR leukemia
# SNB-19 CNS = system: SNB-19 CNS
# NCI-H460 lung = system: NCI-H460 lung
# HCT-15 colon = system: HCT-15 colon
# MCF7 breast = system: MCF7 breast
# EKVX NSCLC = system: EKVX NSCLC
# SF-539 CNS = system: SF-539 CNS
# K-562 leukemia = system: K-562 leukemia
# CAKI-1 renal = system: CAKI-1 renal
# HL-60(TB) leukemia = system: HL-60(TB) leukemia
# UACC-62 melanoma = system: UACC-62 melanoma
# CCRF-CEM leukemia = system: CCRF-CEM leukemia
# UACC-257 melanoma = system: UACC-257 melanoma
# RXF 393 renal = system: RXF 393 renal
# OVCAR-3 ovarian = system: OVCAR-3 ovarian
# T-47D breast = system: T-47D breast
# M14 melanoma = system: M14 melanoma
# TK-10 renal = system: TK-10 renal
# MALME-3M melanoma = system: MALME-3M melanoma
# RPMI-8226 leukemia = system: RPMI-8226 leukemia
# NCI-H226 lung = system: NCI-H226 lung
# 786-0 renal = system: 786-0 renal
# SNB-75 CNS = system: SNB-75 CNS
# U251 CNS = system: U251 CNS
# SW-620 colon = system: SW-620 colon
# KM12 colon = system: KM12 colon
# OVCAR-4 ovarian = system: OVCAR-4 ovarian
# DU-145 prostate = system: DU-145 prostate
# NCI-H522 lung = system: NCI-H522 lung
# MDA-MB-231 breast = system: MDA-MB-231 breast
# PC-3 prostate = system: PC-3 prostate
# A498 renal = system: A498 renal
# SK-MEL-2 melanoma = system: SK-MEL-2 melanoma
# IGROV1 ovarian = system: IGROV1 ovarian
# SF-268 CNS = system: SF-268 CNS
# MOLT-4 leukemia = system: MOLT-4 leukemia
# BT-549 breast = system: BT-549 breast
# HCC-2998 colon = system: HCC-2998 colon
# ACHN renal = system: ACHN renal
# LOX IMVI melanoma = system: LOX IMVI melanoma
# HOP-62 NSCLC = system: HOP-62 NSCLC
# OVCAR-5 ovarian = system: OVCAR-5 ovarian
# SK-MEL-28 melanoma = system: SK-MEL-28 melanoma
# OVCAR-8 ovarian = system: OVCAR-8 ovarian
# HOP-92 NSCLC = system: HOP-92 NSCLC
# A549 NSCLC = system: A549 NSCLC
# HCT-116 colon = system: HCT-116 colon
# UO-31 renal = system: UO-31 renal
# MDA-MB-435 = system: MDA-MB-435
# MDA-MB-468 breast = system: MDA-MB-468 breast
# SF-295 CNS = system: SF-295 CNS
# HS 578T breast = system: HS 578T breast
# NCI/ADR-RES ovarian = system: NCI/ADR-RES ovarian
# HT29 colon = system: HT29 colon
# SK-MEL-5 melanoma = system: SK-MEL-5 melanoma
# SN12C renal = system: SN12C renal
# NCI-H23 lung = system: NCI-H23 lung
smiles,measurement,setting,value
C=CC(=O)Nc1ccc(C(=O)/C=C/c2ccc(N(C)C)cc2)c(O)c1,GI50,SK-OV-3 ovarian,9.3 µM
same,TGI,SK-OV-3 ovarian,26.7 µM
same,GI50,COLO 205 colon,3.49 µM
same,TGI,COLO 205 colon,11.9 µM
same,GI50,SR leukemia,1.1 µM
same,TGI,SR leukemia,> 100 µM
same,GI50,SNB-19 CNS,3.72 µM
same,TGI,SNB-19 CNS,16.1 µM
same,GI50,NCI-H460 lung,2.75 µM
same,TGI,NCI-H460 lung,10.9 µM
same,GI50,HCT-15 colon,1.58 µM
same,TGI,HCT-15 colon,3.75 µM
same,GI50,MCF7 breast,1.88 µM
same,TGI,MCF7 breast,17 µM
same,GI50,EKVX NSCLC,5.76 µM
same,TGI,EKVX NSCLC,25.8 µM
same,GI50,SF-539 CNS,1.71 µM
same,TGI,SF-539 CNS,3.78 µM
same,GI50,K-562 leukemia,3.07 µM
same,TGI,K-562 leukemia,> 100 µM
same,GI50,CAKI-1 renal,2.85 µM
same,TGI,CAKI-1 renal,10.3 µM
same,GI50,HL-60(TB) leukemia,2.54 µM
same,TGI,HL-60(TB) leukemia,8.45 µM
same,GI50,UACC-62 melanoma,1.76 µM
same,TGI,UACC-62 melanoma,6.54 µM
same,GI50,CCRF-CEM leukemia,2.56 µM
same,TGI,CCRF-CEM leukemia,> 100 µM
same,GI50,UACC-257 melanoma,3.5 µM
same,TGI,UACC-257 melanoma,18.6 µM
same,GI50,RXF 393 renal,1.43 µM
same,TGI,RXF 393 renal,3.5 µM
same,GI50,OVCAR-3 ovarian,2.79 µM
same,TGI,OVCAR-3 ovarian,13.2 µM
same,GI50,T-47D breast,2.33 µM
same,TGI,T-47D breast,12.6 µM
same,GI50,M14 melanoma,1.97 µM
same,TGI,M14 melanoma,6.62 µM
same,GI50,TK-10 renal,3.16 µM
same,TGI,TK-10 renal,11.8 µM
same,GI50,MALME-3M melanoma,2.19 µM
same,TGI,MALME-3M melanoma,10.6 µM
same,GI50,RPMI-8226 leukemia,2.91 µM
same,TGI,RPMI-8226 leukemia,12 µM
same,GI50,NCI-H226 lung,2.46 µM
same,TGI,NCI-H226 lung,11.3 µM
same,GI50,786-0 renal,2.18 µM
same,TGI,786-0 renal,7.94 µM
same,GI50,SNB-75 CNS,3.27 µM
same,TGI,SNB-75 CNS,14.8 µM
same,GI50,U251 CNS,2.73 µM
same,TGI,U251 CNS,11.9 µM
same,GI50,SW-620 colon,1.67 µM
same,TGI,SW-620 colon,3.89 µM
same,GI50,KM12 colon,3.19 µM
same,TGI,KM12 colon,12.5 µM
same,GI50,OVCAR-4 ovarian,4.08 µM
same,TGI,OVCAR-4 ovarian,43.6 µM
same,GI50,DU-145 prostate,2.93 µM
same,TGI,DU-145 prostate,12.6 µM
same,GI50,NCI-H522 lung,1.5 µM
same,TGI,NCI-H522 lung,3.11 µM
same,GI50,MDA-MB-231 breast,2.41 µM
same,TGI,MDA-MB-231 breast,7.49 µM
same,GI50,PC-3 prostate,4.57 µM
same,TGI,PC-3 prostate,60.6 µM
same,GI50,A498 renal,10.5 µM
same,TGI,A498 renal,36.8 µM
same,GI50,SK-MEL-2 melanoma,2.94 µM
same,TGI,SK-MEL-2 melanoma,11.5 µM
same,GI50,IGROV1 ovarian,3.51 µM
same,TGI,IGROV1 ovarian,15.1 µM
same,GI50,SF-268 CNS,4 µM
same,TGI,SF-268 CNS,22.9 µM
same,GI50,MOLT-4 leukemia,2.8 µM
same,TGI,MOLT-4 leukemia,> 100 µM
same,GI50,BT-549 breast,1.39 µM
same,TGI,BT-549 breast,5.17 µM
same,GI50,HCC-2998 colon,2.41 µM
same,TGI,HCC-2998 colon,8.77 µM
same,GI50,ACHN renal,1.74 µM
same,TGI,ACHN renal,3.79 µM
same,GI50,LOX IMVI melanoma,1.46 µM
same,TGI,LOX IMVI melanoma,3.28 µM
same,GI50,HOP-62 NSCLC,3.15 µM
same,TGI,HOP-62 NSCLC,13.3 µM
same,GI50,OVCAR-5 ovarian,2.55 µM
same,TGI,OVCAR-5 ovarian,10.7 µM
same,GI50,SK-MEL-28 melanoma,2.02 µM
same,TGI,SK-MEL-28 melanoma,6.44 µM
same,GI50,OVCAR-8 ovarian,1.68 µM
same,TGI,OVCAR-8 ovarian,4.28 µM
same,GI50,HOP-92 NSCLC,1.78 µM
same,TGI,HOP-92 NSCLC,17 µM
same,GI50,A549 NSCLC,2.57 µM
same,TGI,A549 NSCLC,16.1 µM
same,GI50,HCT-116 colon,1.49 µM
same,TGI,HCT-116 colon,2.9 µM
same,GI50,UO-31 renal,1.31 µM
same,TGI,UO-31 renal,14.3 µM
same,GI50,MDA-MB-435,2.92 µM
same,TGI,MDA-MB-435,14 µM
same,GI50,MDA-MB-468 breast,1.61 µM
same,TGI,MDA-MB-468 breast,6.17 µM
same,GI50,SF-295 CNS,5.69 µM
same,TGI,SF-295 CNS,37.1 µM
same,GI50,HS 578T breast,3.26 µM
same,TGI,HS 578T breast,> 100 µM
same,GI50,NCI/ADR-RES ovarian,2.2 µM
same,TGI,NCI/ADR-RES ovarian,6.83 µM
same,GI50,HT29 colon,2.37 µM
same,TGI,HT29 colon,7.08 µM
same,GI50,SK-MEL-5 melanoma,3.08 µM
same,TGI,SK-MEL-5 melanoma,12.9 µM
same,GI50,SN12C renal,2.03 µM
same,TGI,SN12C renal,8.27 µM
same,GI50,NCI-H23 lung,3.26 µM
same,TGI,NCI-H23 lung,14.1 µM
